Source: patent US20110059947A1, “ALPHA 7 NICOTINIC AGONISTS AND ANTIPSYCHOTICS” (Targacept, Inc., priority 2008, published 2011)

Key:
th(tk-)/th(tk-) mice [1] = test: Prepulse inhibition (PPI) and acoustic startle in th(tk-)/th(tk-) and control mice; type: in vivo
db/db mice = test: Plasma glucose and body weight in obese db/db mice; type: in vivo; settings: 1 mg/kg
th(tk-)/th(tk-) mice [2] = test: Social behavior, nonsocial autogrooming and open field activity; type: in vivo; settings: 1 mg/kg i.p.
Experimental: B. […] On testing days, each subject received three tests: a social behavior test with a female, a social behavior test with a male, and an open-field test. There was a 30-minute interval between each test. Social behavior was tested using a variant of the resident-intruder paradigm, in which a stimulus animal was introduced into the subject's homecage for three minutes. Prior to testing the subjects' home cages were not changed for at least four days to allow them to establish the cage as their territory. Female stimulus animals were singly-housed, randomly cycling C57BI/6Js (Jackson Laboratories, Bar Harbor, Me.). Each subject was tested with a different stimulus animal and each stimulus animal was used only once per testing day. Male stimulus animals were singly-housed C57BI/6Js (Jackson Laboratories, Bar Harbor, Me.). Each subject was tested with a different stimulus animal and each stimulus animal was used only once per testing day. A stimulus female was placed into the cage of wild-type (n=8) and tk-/- (n=8) subjects. After three minutes, the stimulus female was removed. Thirty minutes later a stimulus male was placed into the subject's homecage. […] The behavior of the subject was quantified from the videotape using the Observer Mobile (Noldus Information Technologies, Sterling, Va.). […] Movement was analyzed in detail using the Clever Sys. […]

Sprague-Dawley rats = test: Apomorphine-induced impairment of pre-pulse inhibition; type: in vivo, rat; settings: haloperidol 0.3 mg/kg i.p., apomorphine 1.0 mg/kg s.c., p<0.001
[3] = db/db mice with fat diet, vs vehicle-treated mice

With `Cc1ccc(C(=O)N[C@@H]2C3CCN(CC3)[C@H]2Cc2cccnc2)s1` [Compound B, (2S,3R)—N-(2-((3-pyridinyl)methyl)-1-azabicyclo[2.2.2]oct-3-yl)-5-methylthiophene-2-carboxamide] the “sensory gating (PPI and acoustic startle response)” value (th(tk-)/th(tk-) mice [1]; control (normal) mice, Compound B) was “no effect on control”, the “deficits in sensory gating (PPI and acoustic startle response)” value (th(tk-)/th(tk-) mice [1]; th(tk-)/th(tk-) mice, Compound B (0.1 and 1.0 mg/kg analyzed)) was “reverse deficits in sensory gating” and the blood glucose levels (db/db mice; [3]) was “significantly decreases”. The body weight gain (db/db mice; [3]) was “significantly decreases” and the “time at which effects on glucose and weight gain become apparent” value (db/db mice; db/db mice, weeks of treatment) was 6 weeks.

For `COc1cccc([C@H](O)C2CCN(CCc3ccc(F)cc3)CC2)c1OC` [Compound M100907], the PPI (th(tk-)/th(tk-) mice [1]; control mice, M100907 any dose) was “no effect at any dose”, the startle response (th(tk-)/th(tk-) mice [1]; control mice, M100907 any dose) was “no effect at any dose” and the PPI (th(tk-)/th(tk-) mice [1]; transgenic mice, M100907 middle (0.1 mg/kg) and high (1 mg/kg) doses vs vehicle) was “increases of PPI”. For the same molecule, the startle response (th(tk-)/th(tk-) mice [1]; treated transgenic groups vs vehicle, M100907) was “significant decrease of startle response”, the “time spent investigating the stimulus animal” value (th(tk-)/th(tk-) mice [2]; TK- mice) was “significantly increased” and the “investigation time of stimulus animal” value (th(tk-)/th(tk-) mice [2]; wild-type animals) was “no effect on investigation time”.

With `CN1CCN(C2=Nc3cc(Cl)ccc3Nc3ccccc32)CC1` [clozapine] the PPI (th(tk-)/th(tk-) mice [1]; clozapine 3 mg/kg) was “no effect” and the startle response (th(tk-)/th(tk-) mice [1]; clozapine 3 mg/kg) was “no effect”.

In the case of `OCCN1CCN(CC/C=C2/c3ccccc3Sc3ccc(C(F)(F)F)cc32)CC1` [flupenthixol], the startle response (th(tk-)/th(tk-) mice [1]; control mice, flupenthixol 1.0 mg/kg vs saline) is reported as “decreased”, the PPI (th(tk-)/th(tk-) mice [1]; control mice, flupenthixol 0.25, 0.5, 1.0 mg/kg) is reported as “no effect of dose” and the startle response (th(tk-)/th(tk-) mice [1]; th(tk-)/th(tk-) mice, flupenthixol 1.0 mg/kg vs saline) is reported as “decreased”. For the same molecule, the PPI (th(tk-)/th(tk-) mice [1]; th(tk-)/th(tk-) mice, flupenthixol 0.25, 0.5, 1.0 mg/kg, all three stimulus intensities, P<0.01) was “increased PPI”.

In the case of `O=C(CCCN1CCC(O)(c2ccc(Cl)cc2)CC1)c1ccc(F)cc1` [haloperidol, reference compound], the “PPI deficits induced by apomorphine” value (Sprague-Dawley rats) is reported as “significantly reversed”.

For `OCCOCCN1CCN(C2=Nc3ccccc3Sc3ccccc32)CC1` [quetiapine], the startle response (th(tk-)/th(tk-) mice [1]; control mice, quetiapine any dose) was “no main effect”, the PPI (th(tk-)/th(tk-) mice [1]; control mice, quetiapine any dose examined) was “no significant main effect” and the PPI (th(tk-)/th(tk-) mice [1]; th(tk-)/th(tk-) mice, quetiapine 7.0 mg/kg, p<0.001) was “normalized the reduced PPI”. The PPI (th(tk-)/th(tk-) mice [1]; th(tk-)/th(tk-) mice, quetiapine lower doses (below 7.0 mg/kg)) was “no effect”, the startle response (th(tk-)/th(tk-) mice [1]; transgenic mice, all doses of quetiapine vs saline, p<0.05) was “significant decrease in startle response” and the “PPI, main effect” value (th(tk-)/th(tk-) mice [1]; transgenic th(tk-)/th(tk-) mice, quetiapine 3.0 mg/kg alone) was “no significant main effect”.
